Test results reported in patent US20090163521A1, “Novel Pyrazolopyrimidinone Derivatives” (ORCHID RESEARCH LABORATORIES LIMITED, priority 2005, published 2009).

Key:
TNF-α [1] = assay: In vitro measurement of TNF-α in LPS-stimulated human PBMC; type: cell-based; conditions: LPS 1 μg/ml, 18 h
Protocol: This assay determines the effect of test compounds on the production of TNF α in human Peripheral Blood Mononuclear Cells (PBMC). Compounds were tested for their ability to inhibit the activity of TNF α in human PBMC. PBMC were isolated from blood (from healthy volunteers) using BD Vacutainer CPT™ (Cell preparation tube, BD Bio Science) and suspended in RPMI medium (Physiol. Res. 52: 593-598, 2003). The test compounds were pre-incubated with PBMC (0.5 million/incubation well) for 15 minutes at 37° C. and then stimulated with Lipopolysaccharide (Escherichia coli: B4; 1 μg/ml) for 18 h at 37° C. in 5% CO2. The levels of TNFα in cell culture medium were estimated using enzyme linked Immunosorbent assay performed in a 96 well format as per the procedure of the manufacturer (Cayman Chemical, Ann Arbor, USA).

COX-2 = molecular target: T1, COX-2 (Homo sapiens, UniProt P35354); assay: Human whole blood assay (LPS-induced PGE2, COX-2 inhibition); type: cell-based; conditions: LPS stimulated
T1 construct: Fresh blood was collected in tubes containing sodium heparin by vein puncture from healthy male volunteers; endogenous in cells; host or cells: human whole blood from healthy male volunteers, aspirin-pretreated and LPS-stimulated
T1 sequence (P35354 18-604): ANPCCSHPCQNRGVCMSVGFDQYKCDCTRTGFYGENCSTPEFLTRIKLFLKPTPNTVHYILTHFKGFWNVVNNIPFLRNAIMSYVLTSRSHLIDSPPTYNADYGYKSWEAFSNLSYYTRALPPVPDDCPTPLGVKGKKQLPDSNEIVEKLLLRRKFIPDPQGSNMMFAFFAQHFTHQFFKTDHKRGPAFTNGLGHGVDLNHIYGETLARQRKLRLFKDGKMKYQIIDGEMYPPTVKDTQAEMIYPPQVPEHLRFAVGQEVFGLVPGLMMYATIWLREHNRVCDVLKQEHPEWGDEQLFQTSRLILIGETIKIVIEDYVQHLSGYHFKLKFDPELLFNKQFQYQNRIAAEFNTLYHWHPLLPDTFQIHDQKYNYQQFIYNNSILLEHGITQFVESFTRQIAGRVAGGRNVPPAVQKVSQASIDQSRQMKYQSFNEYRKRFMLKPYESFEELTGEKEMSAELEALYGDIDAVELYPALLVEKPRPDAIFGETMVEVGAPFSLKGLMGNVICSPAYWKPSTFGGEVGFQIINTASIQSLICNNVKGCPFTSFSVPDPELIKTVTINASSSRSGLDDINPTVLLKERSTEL
Protocol: Human whole blood provides a protein and cell rich milieu appropriate for the study of biochemical efficacy of anti-inflammatory compounds such as selective COX-2 inhibitors. […] This is correlating with the observation that COX-2 inhibitors have no effect on prostaglandin E2 (PGE2) production in normal blood. These inhibitors were active only after incubation of human blood with lipopolysaccharide (LPS), which induces COX-2 production in the blood.
Fresh blood was collected in tubes containing sodium heparin by vein puncture from healthy male volunteers. The subjects should have no apparent inflammatory conditions and not taken NSAIDs for at least 7 days prior to blood collection. Blood was preincubated with aspirin in vitro (12 μg/ml, at time zero) to inactivate COX-1 for 6 hours. Then test compounds (at various concentrations) or vehicle were added to blood. After that blood was stimulated with LPS B:4 (10 μg/ml) and incubated for another 18 h at 37° C. water bath. After which the blood was centrifuged, plasma was separated and stored at −80° C. (J. Pharmacol. Exp. Ther, 271, 1705, 1994; Proc. Natl. Acad. Sci. USA, 96, 7563, 1999). The plasma was assayed for PGE2 using Cayman ELISA kit as per the procedure outlined by the manufacturer (Cayman Chemicals, Ann Arbor, USA).

NCI-H460 = assay: DTP human tumor cell line screen, NCI-H460; type: cell-based; conditions: 100 μM; 48 hours; percent growth of control
Protocol: (§1) The current assay utilizes a 384 well plate format and fluorescent staining technologies resulting in greater screening capacity for testing of synthetic samples.
(§2) The cell lines of the cancer-screening panel are grown in RPMI 1640 medium containing 5% fetal bovine serum and 2 mM L-glutamine. For a typical screening experiment, cells are inoculated into 96 well microtiter plates in 100 μL. After cell inoculation, the micro-titer plates are incubated at 37° C., 5% CO2, 95% air and 100% relative humidity for 24 h prior to addition of experimental drugs. The cells are plated a densities of 5000 cells/well (MCF7), 1000 cells/well (NCI-H460), and 7500 cells/well (SF-268) to allow for varying doubling time of the cell lines. Each plate contains all three-cell lines, a series of dilutions of standard agents, total kill wells and appropriate controls. Plates are incubated under standard conditions for 24 hours prior to addition of experimental compounds or extracts.
(§3) Experimental compounds are solubilized in dimethyl sulfoxide (DMSO) at 400-times the desired maximum test concentration (maximum final DMSO concentration of 0.25%) and stored frozen. Compounds are then diluted with complete media with 0.1% gentamicin sulfate (5 μl of test sample in 100% DMSO is added to 565 μl of complete medium). 20 μl of this solution is then dispensed into test wells containing 50 μl of cell suspension to yield a test concentration of 1.00E-04M.
(§4) After compound addition, plates are incubated at standard conditions for 48 hours, 10 μl/well Alamar Blue is added and the plates are incubated for an additional 4 hours. Fluorescence is measured using an excitation wavelength of 530 nm and an emission wavelength of 590 nm.
(§5) Percent growth is calculated on a plate-by-plate basis for test wells relative to control wells. Percent Growth is expressed as the ratio of fluorescence of the test well to the average fluorescence of the control wells ×100.

MCF-7 = assay: DTP human tumor cell line screen, MCF-7; type: cell-based; conditions: 100 μM; 48 hours; percent growth of control
Protocol: as §1, §2, §3, §4, §5

SF-268 = assay: DTP human tumor cell line screen, SF-268; type: cell-based; conditions: 100 μM; 48 hours; percent growth of control
Protocol: as §1, §2, §3, §4, §5

TNF-α [2] = assay: LPS induced sepsis for measurement of TNF-α inhibition in mice; type: in vivo; conditions: at 50 mg/kg, oral, serum 90 min after LPS
Protocol: The LPS induced sepsis model in mice was performed as described by Les sekut et al (J Lab Clin Med 1994; 124:813-20). Female Swiss albino mice were selected and the body weights were equivalent within each group. The mice were fasted for 20 hours with free access to water. The mice were dosed orally with the test compound suspended in vehicle containing 0.5% Tween 80 in 0.25% Carboxy-methylcellulose sodium salt. The control mice were administered the vehicle alone. After 30 min of oral dosing, mice were injected with 500 μg of Lipopolysaccharide (Escherichia coli, LPS: B4 from Sigma) in phosphate buffer saline solution into the intraperitoneal cavity of the mice. After 90 min of LPS administration mice were bled via retro-orbital sinus puncture. Blood samples were stored overnight at 4° C. Serum samples were collected by centrifuging the samples at 400 rpm for 15 min at 4° C. Immediately the serum samples were analysed for TNFα levels using commercially available mouse TNF-α ELISA kit (Amersham Biosciences) and assay was performed by the manufacturer instruction.

## COc1ccc(-n2c(-c3ccc(N(C)C)cc3)nc3c(c(N)nn3C)c2=O)cc1 [Example 31, 3-Amino-6-[4-(dimethylamino)phenyl]-5-(4-methoxyphenyl)-1-methyl-1,5-dihydro-4H-pyrazolo[3,4-d]pyrimidin-4-one]
TNF-α [1]
  inhibition at 10 µM: 87.9%

## CSc1ccc(-n2c(-c3ccc(C(F)(F)F)cc3)nc3[nH]nc(N)c3c2=O)cc1 [Example 17, 3-Amino-5-[(4-methylthio)phenyl]-6-(4-trifluoromethylphenyl)-1,5-dihydro-4H-pyrazolo[3,4-d]pyrimidin-4-one]
COX-2
  inhibition at 0.25 µM: 19.4%
  inhibition at 10 µM: 36.5%
NCI-H460
  % T/C Lung (NCI-H460): 25%
MCF-7
  % T/C Breast (MCF-7): 0%
SF-268
  % T/C CNS (SF-268): 0%

## CSc1ccc(-n2c(-c3ccccc3)nc3[nH]nc(N)c3c2=O)cc1 [Example 11, 3-Amino-5-[(4-methylthio)phenyl]-6-phenyl-1,5-dihydro-4H-pyrazolo[3,4-d]pyrimidin-4-one]
COX-2
  inhibition at 10 µM: 29.2%

## CSc1ccc(-c2nc3c(c(N)nn3C)c(=O)n2-c2ccc(Cl)cc2)cc1 [Example 24, 3-Amino-5-(4-chlorophenyl)-1-methyl-6-[4-(methylthio)phenyl]-1,5-dihydro-4H-pyrazolo[3,4-d]pyrimidin-4-one]
TNF-α [1]
  inhibition at 10 µM: 87.9%
TNF-α [2]
  TNF-α Inhibition (%): 91.99 (at 50 mg/kg) %

## CSc1ccc(-n2c(-c3ccc(F)cc3)nc3[nH]nc(N)c3c2=O)cc1 [Example 5, 3-Amino-5-[(4-methylthio)phenyl]-6-(4-fluorophenyl)-1,5-dihydro-4H-pyrazolo[3,4-d]pyrimidin-4-one]
COX-2
  inhibition at 10 µM: 31.8%

## CSc1ccc(-c2nc3[nH]nc(N)c3c(=O)n2-c2ccc(Cl)cc2)cc1 [Example 9, 3-Amino-5-(4-chlorophenyl)-6-[(4-methylthio)phenyl]-1,5-dihydro-4H-pyrazolo[3,4-d]pyrimidin-4-one]
COX-2
  inhibition at 10 µM: 27.1%
NCI-H460
  % T/C Lung (NCI-H460): 4%
MCF-7
  % T/C Breast (MCF-7): 9%
SF-268
  % T/C CNS (SF-268): 31%

## CSc1ccc(-c2nc3c(c(N)nn3C(C)=O)c(=O)n2-c2ccc(C)c(C)c2)cc1 [Example 37, 1-Acetyl-3-amino-5-(3,4-dimethylphenyl)-6-[(4-methylthio)phenyl]-1,5-dihydro-4H-pyrazolo[3,4-d]pyrimidin-4-one]
TNF-α [1]
  inhibition at 10 µM: 29.9%

## CCOc1ccc(-n2c(-c3ccc(SC)cc3)nc3[nH]nc(N)c3c2=O)cc1 [Example 15, 3-Amino-5-(4-ethoxyphenyl)-6-[(4-methylthio)phenyl]-1,5-dihydro-4H-pyrazolo[3,4-d]pyrimidin-4-one]
COX-2
  inhibition at 0.25 µM: 20.2%

## CSc1ccc(-n2c(-c3ccc(C)cc3)nc3[nH]nc(N)c3c2=O)cc1 [Example 13, 3-Amino-5-[(4-methylthio)phenyl]-6-(4-methylphenyl)-1,5-dihydro-4H-pyrazolo[3,4-d]pyrimidin-4-one]
COX-2
  inhibition at 0.25 µM: 26.8%

## Nc1n[nH]c2nc(-c3ccccc3)n(-c3ccc(F)cc3)c(=O)c12 [Example 12, 3-Amino-5-(4-fluorophenyl)-6-phenyl-1,5-dihydro-4H-pyrazolo[3,4-d]pyrimidin-4-one]
COX-2
  inhibition at 0.25 µM: 26.2%

## Cc1ccc(-n2c(-c3ccccc3)nc3[nH]nc(N)c3c2=O)cc1 [Example 16, 3-Amino-5-(4-methylphenyl)-6-phenyl-1,5-dihydro-4H-pyrazolo[3,4-d]pyrimidin-4-one]
COX-2
  inhibition at 0.25 µM: 31.4%

## Cc1ccc(-n2c(-c3ccc(S(C)(=O)=O)cc3)nc3[nH]nc(N)c3c2=O)cc1 [Example 14, 3-Amino-5-(4-methylphenyl)-6-[(4-methylsulfonyl)phenyl]-1,5-dihydro-4H-pyrazolo[3,4-d]pyrimidin-4-one]
COX-2
  inhibition at 0.25 µM: 19.3%
  inhibition at 10 µM: 23%

## CSc1ccc(-c2nc3c(c(N)nn3C)c(=O)n2-c2ccc(Br)cc2)cc1 [Example 30, 3-Amino-5-(4-bromophenyl)-1-methyl-6-[4-(methylthio)phenyl]-1,5-dihydro-4H-pyrazolo[3,4-d]pyrimidin-4-one]
TNF-α [1]
  inhibition at 10 µM: 86.6%

## CSc1ccc(-n2c(-c3ccc(Cl)cc3)nc3[nH]nc(N)c3c2=O)cc1 [Example 8, 3-Amino-5-[(4-methylthio)phenyl]-6-(4-chlorophenyl)-1,5-dihydro-4H-pyrazolo[3,4-d]pyrimidin-4-one]
COX-2
  inhibition at 0.25 µM: 28.3%
NCI-H460
  % T/C Lung (NCI-H460): 2%
MCF-7
  % T/C Breast (MCF-7): 26%
SF-268
  % T/C CNS (SF-268): 36%

## CSc1ccc(-c2nc3[nH]nc(N)c3c(=O)n2-c2ccc(C(C)(C)C)cc2)cc1 [Example 6, 3-Amino-5-(4-tert-butylphenyl)-6-[4-(methylthio)phenyl]-1,5-dihydro-4H-pyrazolo[3,4-d]pyrimidin-4-one]
COX-2
  inhibition at 0.25 µM: 18.6%
  inhibition at 10 µM: 37.7%
NCI-H460
  % T/C Lung (NCI-H460): 0%
MCF-7
  % T/C Breast (MCF-7): 0%
SF-268
  % T/C CNS (SF-268): 1%

## CSc1ccc(-c2nc3c(c(N)nn3C)c(=O)n2-c2ccc(F)cc2)cc1 [Example 25, 3-Amino-5-(4-fluorophenyl)-1-methyl-6-[4-(methylthio)phenyl]-1,5-dihydro-4H-pyrazolo[3,4-d]pyrimidin-4-one]
TNF-α [1]
  inhibition at 10 µM: 52.9%

## CCc1ccc(-n2c(-c3ccc(SC)cc3)nc3[nH]nc(N)c3c2=O)cc1 [Example 10, 3-Amino-5-(4-ethylphenyl)-6-[(4-methylthio)phenyl]-1,5-dihydro-4H-pyrazolo[3,4-d]pyrimidin-4-one]
NCI-H460
  % T/C Lung (NCI-H460): 4%
MCF-7
  % T/C Breast (MCF-7): 22%
SF-268
  % T/C CNS (SF-268): 10%
